Where “and” joins values, the source holds several entries; their conditions need not be identical. Identical values can stand only once. Toxic doses and inconclusive results are not listed.
Tested on: BDF1 mice, P388 leukemia ip, median survival T/C
Test: NCI In Vivo Anticancer Drug Screen. Data for tumor model P388 Leukemia (intraperitoneal) in B6D2F1 (BDF1) mice
Conditions: endpoint: median survival time, higher = longer survival
Procedure, shortened: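 Survival ratio, drug arm over vehicle arm, in mice with a transplanted tumour.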

[1] = dose: 100.0 mg/kg/injection, schedule: Q04DX003 (ip), vehicle: saline with Tween-80
[2] = dose: 200.0 mg/kg/injection, schedule: Q04DX003 (ip), vehicle: saline with Tween-80
[3] = dose: 200.0 mg/kg/injection, schedule: Q01DX009 (ip), vehicle: Klucel (hydroxypropylcellulose) (HPC)
[4] = dose: 12.5 mg/kg/injection, schedule: Q01DX009 (ip), vehicle: water
[5] = dose: 25.0 mg/kg/injection, schedule: Q01DX009 (ip), vehicle: water
[6] = dose: 25.0 mg/kg/injection, schedule: Q04DX003 (ip), vehicle: water
[7] = dose: 50.0 mg/kg/injection, schedule: Q01DX009 (ip), vehicle: water
[8] = dose: 50.0 mg/kg/injection, schedule: Q04DX003 (ip), vehicle: water
[9] = dose: 100.0 mg/kg/injection, schedule: Q04DX003 (ip), vehicle: water
[10] = dose: 100.0 mg/kg/injection, schedule: Q01DX009 (ip), vehicle: saline
[11] = dose: 200.0 mg/kg/injection, schedule: Q01DX009 (ip), vehicle: saline
[12] = dose: 100.0 mg/kg/injection, schedule: Q04DX003 (ip), vehicle: saline
[13] = dose: 400.0 mg/kg/injection, schedule: Q04DX003 (ip), vehicle: saline
[14] = dose: 50.0 mg/kg/injection, schedule: Q01DX009 (ip), vehicle: saline

CCCCCCCCCCCC1=NC(CO)(CO)CO1
T/C (dose: 100.0 mg/kg/injection, schedule: Q01DX001 (ip), vehicle: saline with Tween-80): 100 % of control | T/C (dose: 200.0 mg/kg/injection, schedule: Q01DX001 (ip), vehicle: saline with Tween-80): 104 % of control | T/C (dose: 400.0 mg/kg/injection, schedule: Q01DX001 (ip), vehicle: saline with Tween-80): 100 % of control

Cn1c(CC(O)(C(F)(F)Cl)C(F)(F)Cl)cc(=O)n1-c1ccccc1
T/C [1]: 100 % of control | T/C [2]: 100 % of control

C/C=C/C=C/C(=O)NO
T/C (dose: 100.0 mg/kg/injection, schedule: Q04DX003 (ip), vehicle: alcohol): 113 % of control | T/C [3]: 91 % of control | T/C (dose: 200.0 mg/kg/injection, schedule: Q04DX003 (ip), vehicle: alcohol): 100 % of control | T/C (dose: 400.0 mg/kg/injection, schedule: Q01DX009 (ip), vehicle: Klucel (hydroxypropylcellulose) (HPC)): 116 % of control | T/C (dose: 400.0 mg/kg/injection, schedule: Q04DX003 (ip), vehicle: alcohol): 104 % of control

Clc1ccc(-c2cc(=[N+]3CCOCC3)ss2)cc1
T/C [4]: 118 % of control | T/C [5]: 102 % of control | T/C [6]: 94 % of control | T/C [7]: 111 % of control | T/C [8]: 100 % of control | T/C (dose: 100.0 mg/kg/injection, schedule: Q01DX009 (ip), vehicle: water): 111 % of control | T/C [9]: 90 % of control | T/C (dose: 200.0 mg/kg/injection, schedule: Q04DX003 (ip), vehicle: water): 110 % of control

CCOC(=O)NC
T/C [10]: 104 % of control | T/C [11]: 100 % of control | T/C (dose: 400.0 mg/kg/injection, schedule: Q01DX009 (ip), vehicle: saline): 112 % of control

COc1ccc(-c2cc(=O)c3ccc4cc(OC)c(OC)cc4c3o2)cc1
T/C (dose: 1.56 mg/kg/injection, schedule: Q01DX009 (ip), vehicle: distilled water + Tween-80): 102 % of control | T/C (dose: 3.13 mg/kg/injection, schedule: Q01DX009 (ip), vehicle: distilled water + Tween-80): 86 % of control | T/C (dose: 6.25 mg/kg/injection, schedule: Q01DX009 (ip), vehicle: distilled water + Tween-80): 87 % of control | T/C (dose: 12.5 mg/kg/injection, schedule: Q01DX009 (ip), vehicle: distilled water + Tween-80): 89 % of control

Cc1c[n+]([O-])ccc1Br
T/C (dose: 6.25 mg/kg/injection, schedule: Q04DX003 (ip), vehicle: water): 100 % of control | T/C (dose: 12.5 mg/kg/injection, schedule: Q04DX003 (ip), vehicle: water): 100 % of control | T/C [6]: 112 % of control | T/C [8]: 99 % of control | T/C [9]: 100 % of control

CN(C)CCSC1=CC(=O)c2ccccc2C1=O
T/C (dose: 0.19 mg/kg/injection, schedule: Q01DX009 (ip), vehicle: water): 116 % of control | T/C (dose: 0.19 mg/kg/injection, schedule: Q04DX003 (ip), vehicle: water): 95 % of control | T/C (dose: 0.39 mg/kg/injection, schedule: Q01DX009 (ip), vehicle: water): 109 % of control | T/C (dose: 0.39 mg/kg/injection, schedule: Q04DX003 (ip), vehicle: water): 105 % of control | T/C (dose: 0.78 mg/kg/injection, schedule: Q01DX009 (ip), vehicle: water): 110 % of control | T/C (dose: 0.78 mg/kg/injection, schedule: Q04DX003 (ip), vehicle: water): 104 % of control | T/C (dose: 1.56 mg/kg/injection, schedule: Q01DX009 (ip), vehicle: water): 109 % of control | T/C (dose: 1.56 mg/kg/injection, schedule: Q04DX003 (ip), vehicle: water): 106 % of control | T/C (dose: 3.12 mg/kg/injection, schedule: Q04DX003 (ip), vehicle: water): 95 % of control

S=C(S)NCCNC(=S)S
T/C (dose: 40.0 mg/kg/injection, schedule: Q01DX009 (ip), vehicle: saline): 120 % of control | T/C (dose: 60.0 mg/kg/injection, schedule: Q01DX009 (ip), vehicle: saline): 108 % of control | T/C (dose: 85.0 mg/kg/injection, schedule: Q04DX003 (ip), vehicle: saline): 109 % of control | T/C (dose: 88.0 mg/kg/injection, schedule: Q01DX009 (ip), vehicle: saline): 100 % of control | T/C (dose: 88.0 mg/kg/injection, schedule: Q04DX003 (ip), vehicle: saline): 109 % of control | T/C [10]: 115 % of control | T/C [12]: 109 % of control and 118 % of control | T/C (dose: 132.0 mg/kg/injection, schedule: Q04DX003 (ip), vehicle: saline): 104 % of control | T/C (dose: 150.0 mg/kg/injection, schedule: Q01DX009 (ip), vehicle: saline): 115 % of control | T/C (dose: 300.0 mg/kg/injection, schedule: Q04DX003 (ip), vehicle: saline): 109 % of control | T/C (dose: 350.0 mg/kg/injection, schedule: Q01DX009 (ip), vehicle: saline): 120 % of control | T/C [13]: 100 % of control and 118 % of control

NC(Cc1ccc(O)cc1)C(=O)OCc1ccccc1 (configuration not stated)
T/C [1]: 104 % of control | T/C [2]: 104 % of control | T/C (dose: 400.0 mg/kg/injection, schedule: Q04DX003 (ip), vehicle: saline with Tween-80): 100 % of control

Cc1ccccc1N=P(c1ccccc1)(c1ccccc1)c1ccccc1
T/C (dose: 50.0 mg/kg/injection, schedule: Q01DX009 (ip), vehicle: gum acacia): 88 % of control | T/C (dose: 100.0 mg/kg/injection, schedule: Q01DX009 (ip), vehicle: gum acacia): 88 % of control | T/C (dose: 100.0 mg/kg/injection, schedule: Q04DX003 (ip), vehicle: gum acacia): 96 % of control | T/C (dose: 200.0 mg/kg/injection, schedule: Q04DX003 (ip), vehicle: gum acacia): 96 % of control

COc1ccc(C(=O)/C(Br)=C/C(=O)O)cc1
T/C (dose: 6.3 mg/kg/injection, schedule: Q01DX009 (ip), vehicle: saline): 106 % of control | T/C [4]: 120 % of control | T/C [5]: 150 % of control | T/C (dose: 25.0 mg/kg/injection, schedule: Q04DX002 (ip), vehicle: saline): 108 % of control and 109 % of control | T/C [7]: 100 % of control | T/C (dose: 50.0 mg/kg/injection, schedule: Q04DX002 (ip), vehicle: saline): 116 % of control and 118 % of control | T/C (dose: 100.0 mg/kg/injection, schedule: Q04DX002 (ip), vehicle: saline): 150 % of control

O=C(O)c1ccc(N2C(=O)c3ccccc3C2=O)cc1[N+](=O)[O-]
T/C [14]: 106 % of control | T/C [10]: 107 % of control | T/C [12]: 99 % of control | T/C [11]: 111 % of control | T/C (dose: 200.0 mg/kg/injection, schedule: Q04DX003 (ip), vehicle: saline): 105 % of control | T/C [13]: 99 % of control

CC(=O)c1cccc(OCc2ccccc2)c1
T/C (dose: 100.0 mg/kg/injection, schedule: Q01DX009 (ip), vehicle: other): 118 % of control | T/C (dose: 100.0 mg/kg/injection, schedule: Q04DX003 (ip), vehicle: other): 100 % of control | T/C (dose: 200.0 mg/kg/injection, schedule: Q01DX009 (ip), vehicle: other): 95 % of control | T/C (dose: 200.0 mg/kg/injection, schedule: Q04DX003 (ip), vehicle: other): 95 % of control | T/C (dose: 400.0 mg/kg/injection, schedule: Q01DX009 (ip), vehicle: other): 109 % of control | T/C (dose: 400.0 mg/kg/injection, schedule: Q04DX003 (ip), vehicle: other): 116 % of control

COc1cc2c3c(c1O)C1(C=CC(=O)C=C1)CC3N(C)CC2 (configuration not stated)
T/C (dose: 50.0 mg/kg/injection, schedule: Q01DX009 (ip), vehicle: saline with Tween-80): 112 % of control | T/C (dose: 100.0 mg/kg/injection, schedule: Q01DX009 (ip), vehicle: saline with Tween-80): 115 % of control

CCCN1c2ccccc2Sc2ccccc21
T/C (dose: 25.0 mg/kg/injection, schedule: Q04DX003 (ip), vehicle: saline with Tween-80): 100 % of control | T/C (dose: 50.0 mg/kg/injection, schedule: Q04DX003 (ip), vehicle: saline with Tween-80): 90 % of control | T/C [1]: 90 % of control | T/C [2]: 90 % of control

CC(C)CN1CCOCC1
T/C (dose: 25.0 mg/kg/injection, schedule: Q04DX003 (ip), vehicle: saline): 95 % of control | T/C (dose: 50.0 mg/kg/injection, schedule: Q04DX003 (ip), vehicle: saline): 108 % of control | T/C [12]: 95 % of control

O=S1(=O)CCN(C2CCCCCC2)CC1
T/C (dose: 50.0 mg/kg/injection, schedule: Q01DX009 (ip), vehicle: Klucel (hydroxypropylcellulose) (HPC)): 106 % of control | T/C (dose: 100.0 mg/kg/injection, schedule: Q01DX009 (ip), vehicle: Klucel (hydroxypropylcellulose) (HPC)): 111 % of control | T/C [3]: 109 % of control

C=Cc1ccc(Oc2ccccc2)cc1
T/C (dose: 25.0 mg/kg/injection, schedule: Q01DX009 (ip), vehicle: saline): 104 % of control | T/C [14]: 104 % of control | T/C [10]: 109 % of control
